The values below come from US11999669B1, “Nitrogen activator stabilizer for reducing and protecting nitrogen fertilizer” (KING FAISAL UNIVERSITY, priority 2023, dated 2024).

The nature of the series: Dissolution of ABT-PNB in water. Type of series: physicochemical. How it is done:
Referring to Scheme 2 above, reaction of 0.2 mmol ethyl cyanoacetate with 0.2 mmol thiourea under MW-US condition for 5 min afforded compound 1. One pot reaction of 0.1 mmole of the compound (1) with 0.1 mmole of 2-nitro-6-cyanobenzoic acid (2) in boiling 2 mL ethanol under MW reaction condition for 10 min afforded 6-(imidazo[4,5-d]pyrimidin-2yl) benzoic acid derivative 3. Reflux reaction of the 0.01 mol compound 3 with 0.02 mole ethylchloroacetate in 10 mL acetone for 5 h afforded the ester 4. US promoted reaction of the 0.01 mol of the compound 4 was allowed to react with 0.01 mol of 4-(dimethylamino)butylchloride, thereby affording the desired fertilized ionic liquid ABT-PNB.

Regarding `CCOC(=O)CSc1nc2c(=O)n(CCCCN(C)C)c(-c3cccc([N+](=O)[O-])c3C(=O)O)nc2[nH]1` [ABT-PNB, 2-(1-(4-(dimethylamino)butyl)-8-((2-ethoxy-2-oxoethyl)thio)-6-oxo-6,9-dihydro-1H-purin-2-yl)-6-nitrobenzoic acid], the solubility in water result is “easily dissolved in water”.
